Experimental data from PubChem BioAssay (NCI).
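Grown in 96-well plates, cells were treated for 48 hours with each compound at five concentrations. Insufficient inhibition: endpoint recorded as highest concentration tested. GI50 = concentration required for 50% inhibition of growth. TGI: total growth inhibition.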

Key:
Test in all cases: NCI tumour cell line growth inhibition, 48 h
HOP-92 NSCLC = test system: HOP-92 NSCLC
NCI-H23 lung = test system: NCI-H23 lung
NCI-H460 lung = test system: NCI-H460 lung
RXF 393 renal = test system: RXF 393 renal
SF-268 CNS = test system: SF-268 CNS
SK-MEL-2 melanoma = test system: SK-MEL-2 melanoma
SK-MEL-28 melanoma = test system: SK-MEL-28 melanoma
HS 578T breast = test system: HS 578T breast
SNB-19 CNS = test system: SNB-19 CNS
UACC-62 melanoma = test system: UACC-62 melanoma

Row | SMILES | TGI (HOP-92 NSCLC) [µM] | TGI (NCI-H23 lung) [µM] | TGI (NCI-H460 lung) [µM] | TGI (RXF 393 renal) [µM] | TGI (SF-268 CNS) [µM] | TGI (SK-MEL-2 melanoma) [µM] | TGI (SK-MEL-28 melanoma) [µM] | TGI (HS 578T breast) [µM] | TGI (SNB-19 CNS) [µM] | TGI (UACC-62 melanoma) [µM] | GI50 (HS 578T breast) [µM] | GI50 (NCI-H460 lung) [µM] | GI50 (SF-268 CNS) [µM] | GI50 (SK-MEL-2 melanoma) [µM] | GI50 (SK-MEL-28 melanoma) [µM] | GI50 (SNB-19 CNS) [µM] | GI50 (UACC-62 melanoma) [µM] | GI50 (HOP-92 NSCLC) [µM] | GI50 (NCI-H23 lung) [µM] | GI50 (RXF 393 renal) [µM]
1 | O=C(COc1ccc(Cl)cc1)N1CCN(C(=O)COc2ccc(Cl)cc2)c2ccccc21 | > 100 | > 100 | > 100 | > 100 | > 100 | > 100 | > 100 | – | – | – | – | – | – | – | – | – | – | – | – | –
2 | O=C(O)COc1ccc(C(=O)/C(SS/C(C(=O)c2ccc(OCC(=O)O)c(Cl)c2Cl)=C2\C=C(c3ccc(Br)cc3)SS2)=C2/C=C(c3ccc(Br)cc3)SS2)c(Cl)c1Cl | 16 | 21.3 | > 71.8 | – | 34 | 33.7 | > 100 | 17.4 | 33.1 | 19.3 | – | – | – | – | – | – | – | – | – | –
3 | C/C(=C\Cc1cc(O)ccc1O)CCc1c(C)c(O)c(O)c(C=O)c1C | 34.7 | 44.7 | 53.3 | 43.8 | 68.5 | 54.4 | 48.5 | – | > 100 | – | – | – | – | – | – | – | – | – | – | –
4 | O=C(O)[C@@H](NS(=O)(=O)c1ccc2ccccc2c1)c1ccccc1 | > 100 | > 100 | > 100 | > 100 | > 100 | > 100 | > 100 | – | > 100 | > 100 | – | – | – | – | – | – | – | – | – | –
5 | Nc1ccc(C(=O)NN2C(=O)C(Cl)C2c2cccc(O)c2)cc1 (stereo not given) | 35.4 | 33.2 | 29.7 | – | 17 | 30.5 | 31.9 | – | 30.5 | 32 | – | – | – | – | – | – | – | – | – | –
6 | C#C[C@H]1CCCCCC1O (stereo not given in full) | > 100 | > 100 | > 100 | > 100 | > 100 | > 100 | > 100 | – | > 100 | > 100 | – | – | – | – | – | – | – | – | – | –
7 | COc1ccc2c(c1)C(=O)c1c-2c(N2CCNCC2)nc2ccccc12 | – | – | 1.98 | – | 11.9 | 21.2 | 3.46 | 20.9 | 20.7 | 12.1 | 5.15 | 0.614 | 2.14 | 4.62 | 1.85 | 5.44 | 3.55 | – | – | –
8 | CCC[CH2][Sn]([CH2]CCC)([O]C(=O)/C=C/c1ccccc1F)[O]C(=O)/C=C/c1ccccc1F | 1.37 | 0.56 | 3.37 | 0.95 | 1.84 | 1.19 | 1.29 | – | 2.07 | 2.59 | – | 1.64 | 0.526 | 0.324 | 0.328 | 0.788 | 1.17 | 0.415 | 0.198 | 0.256
9 | COC(=O)C#CCC1CCCC1C1SCCS1 (stereo not given) | > 100 | > 100 | – | > 100 | > 100 | 74.6 | > 100 | – | > 100 | > 100 | – | – | – | – | – | – | – | – | – | –
10 | CC(=O)Nc1ccc(C(=O)NN2C(=O)C(Cl)C2c2ccc(O)cc2)cc1 (stereo not given) | – | – | > 100 | > 100 | > 100 | > 100 | > 100 | – | > 100 | > 100 | – | – | – | – | – | – | – | – | – | –
11 | CCC1C(=O)OCc2c1cc1n(c2=O)C(CC)c2c-1nc1ccccc1c2Cl (stereo not given) | > 100 | > 100 | 55.4 | – | > 100 | 65.4 | > 100 | – | > 100 | > 100 | – | – | – | – | – | – | – | – | – | –
